Measured values: patent US20060263802A1 (priority 2003, published 2006)

Columns and labels:
Type in all cases: binding
[1] = test system: human monoclonal antibody CR57
[2] = test system: human monoclonal antibody CRJA
[3] = test system: human monoclonal antibody CRJA; remark: listed apart in the source
[4] = test system: human monoclonal antibody CR57; remark: listed apart in the source
[5] = test system: human monoclonal antibody CRJB
[6] = test system: human monoclonal antibody CRJB; remark: listed apart in the source

Sequence	Binding of CR57 (10 μg/ml) to looped/cyclic peptide (PEPSCAN-ELISA signal) [1]	Binding of CRJA (10 μg/ml) to looped/cyclic peptide (PEPSCAN-ELISA signal) [2]	Binding of CRJA to linear peptide (PEPSCAN-ELISA signal) [3]	Binding of CR57 to linear peptide (PEPSCAN-ELISA signal) [4]	Binding of CRJB to linear peptide (PEPSCAN-ELISA signal) [5]	Binding of CRJB (10 μg/ml) to looped/cyclic peptide (PEPSCAN-ELISA signal) [6]	Binding of CR57 (10 μg/ml) to looped/cyclic peptide (PEPSCAN-ELISA) [1]	Binding of CRJA (10 μg/ml) to looped/cyclic peptide (PEPSCAN-ELISA) [2]	Binding of CRJB (10 μg/ml) to looped/cyclic peptide (PEPSCAN-ELISA) [6]	Binding of CR57 to looped/cyclic peptide (PEPSCAN-ELISA signal) [1]	Binding of CRJA to looped/cyclic peptide (PEPSCAN-ELISA signal) [2]	Binding of human monoclonal antibody CRJA to linear peptide (PEPSCAN-ELISA signal) [3]	Binding of human monoclonal antibody CR57 to linear peptide (PEPSCAN-ELISA signal) [4]	Binding of human monoclonal antibody CRJB to linear peptide (PEPSCAN-ELISA signal) [5]	Binding of CRJB to looped/cyclic peptide (PEPSCAN-ELISA signal) [6]
VEDEGCTNLSGFSYM	83	86	82	74	103	78									
LVVEELVRKREECLD			65	64	100		68	50	76						
LKVGYILAIKMNGFT	58	76	68	78	112	74									
IYTILDKLGPWSPID	66	78	83	44	97	58									
GGRCHPHVNGVFFNG			110	86	119		134	107	110						
LRLMDGTWVAMQTSN			96	103	114		98	92	72						
HPLADPSTVFKDGDE										111	115	100	74	141	93
KFPIYTILDKLGPWS	72	43	65	71	97	64									
GLYKSLKGACKLKLC			91	94	129		86	100	97						
HLPDVHNQVSGVDLG										119	87	96	104	150	93
CSGVAVSSTYCSTNH	94	94	106	110	165	90									
VNLHDFRSDEIEHLV			103	83	129		97	84	56						
EHLVVEELVRKREEC			76	82	114		89	93	83						
PIYTILDKLGPWSPI	58	78	143	36	89	77									
LRKLVPGFGKAYTIF			116	83	118		92	87	105						
EDEGCTNLSGFSYME	76	54	65	54	90	68									
ETCGFVDERGLYKSL			85	64	120		90	75	78						
AYNWKMAGDPRYEES	96	72	90	96	94	77									
PDYRWLRTVKTTKES	79	90	83	76	85	72									
VAMQTSNETKWCPPD			97	86	104		45	90	66						
YPDYRWLRTVKTTKE	88	92	88	72	97	73									
IDIHHLSCPNNLVVE	55	55	61	69	102	59									
KSVSFRRLSHLRKLV			111	108	124		114	88	97						
VLGLRLMDGTWVAMQ			107	90	141		94	108	106						
